Drawing on BindingDB's records for doi:10.1016/j.ejmech.2021.113474 (Yanbian University, 2021), this text covers IC50 for 25 compounds.

The IC50 is the concentration at which inhibition is half-maximal.

The target in this experiment is Hypoxia-inducible factor 1-alpha (Homo sapiens, UniProt Q16665). Briefly: Inhibition of hypoxia-induced HIF1alpha transcriptional activity in human Hep3B cells co-transfected with luciferase reporter plasmid containing six copies of HREs and pRL-CMV vector assessed as reduction in luciferase activity incubated for 24 hrs under hypoxic condition by HRE-dependent dual luciferase reporter gene assay. Background: A reporter such as luciferase makes a cellular process visible.
Chain of Hypoxia-inducible factor 1-alpha (Q16665 whole entry): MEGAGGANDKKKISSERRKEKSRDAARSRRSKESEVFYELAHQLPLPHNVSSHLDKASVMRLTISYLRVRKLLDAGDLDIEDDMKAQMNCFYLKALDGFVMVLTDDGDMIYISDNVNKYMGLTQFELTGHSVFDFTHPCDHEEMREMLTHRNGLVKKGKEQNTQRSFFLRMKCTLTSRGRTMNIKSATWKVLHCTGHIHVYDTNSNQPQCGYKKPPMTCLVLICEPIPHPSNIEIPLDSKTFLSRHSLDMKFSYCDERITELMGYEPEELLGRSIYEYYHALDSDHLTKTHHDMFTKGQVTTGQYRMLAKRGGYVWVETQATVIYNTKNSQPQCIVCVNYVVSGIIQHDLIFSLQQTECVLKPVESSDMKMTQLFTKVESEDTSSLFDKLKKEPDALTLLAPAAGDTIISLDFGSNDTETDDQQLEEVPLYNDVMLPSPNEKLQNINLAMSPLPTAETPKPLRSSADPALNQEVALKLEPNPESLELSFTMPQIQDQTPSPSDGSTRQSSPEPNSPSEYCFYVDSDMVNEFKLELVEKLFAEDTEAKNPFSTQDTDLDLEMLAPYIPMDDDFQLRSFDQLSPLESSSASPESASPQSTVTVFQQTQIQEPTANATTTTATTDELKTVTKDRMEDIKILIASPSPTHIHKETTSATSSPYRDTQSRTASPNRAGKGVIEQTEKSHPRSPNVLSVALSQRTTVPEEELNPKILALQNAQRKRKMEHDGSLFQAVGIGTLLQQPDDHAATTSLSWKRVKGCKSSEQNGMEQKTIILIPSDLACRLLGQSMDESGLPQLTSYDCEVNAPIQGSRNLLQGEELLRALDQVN
In the case of `CC1=C(O)C(=O)C=C2C1=CC=C1[C@@]2(C)CC[C@@]2(C)[C@@H]3C[C@](C)(C(=O)OCCOc4cc(C)oc(=O)c4)CC[C@]3(C)CC[C@]12C`, the concentration for half-maximal inhibition (IC50) was 0.15 µM.

Regarding `CC1=C(O)C(=O)C=C2C1=CC=C1[C@@]2(C)CC[C@@]2(C)[C@@H]3C[C@](C)(C(=O)OCC(=O)Nc4cc(C)on4)CC[C@]3(C)CC[C@]12C`, the IC50 was determined as 0.07 µM. `CC1=C(O)C(=O)C=C2C1=CC=C1[C@@]2(C)CC[C@@]2(C)[C@@H]3C[C@](C)(C(=O)OCC(=O)Nc4ccc(F)cn4)CC[C@]3(C)CC[C@]12C`: the 50% inhibitory concentration (IC50) was 0.25 µM. As for `CC1=C(O)C(=O)C=C2C1=CC=C1[C@@]2(C)CC[C@@]2(C)[C@@H]3C[C@](C)(C(=O)OCC(=O)Nc4ccncc4)CC[C@]3(C)CC[C@]12C`, the IC50 is 32 µM.

On to `CC1=C(O)C(=O)C=C2C1=CC=C1[C@@]2(C)CC[C@@]2(C)[C@@H]3C[C@](C)(C(=O)OCC(=O)Nc4ccnc5ccccc45)CC[C@]3(C)CC[C@]12C`, for which the IC50 turned out to be 0.49 µM. As for `CC1=C(O)C(=O)C=C2C1=CC=C1[C@@]2(C)CC[C@@]2(C)[C@@H]3C[C@](C)(C(=O)OCC(=O)NCc4cn(-c5ccc(Cl)cc5)nn4)CC[C@]3(C)CC[C@]12C`, the concentration for half-maximal inhibition (IC50) is above 30 µM. Turning to `CC1=C(O)C(=O)C=C2C1=CC=C1[C@@]2(C)CC[C@@]2(C)[C@@H]3C[C@](C)(C(=O)OCCOc4cc(=O)oc5ccccc45)CC[C@]3(C)CC[C@]12C`, the IC50 is 0.15 µM. With `CC1=C(O)C(=O)C=C2C1=CC=C1[C@@]2(C)CC[C@@]2(C)[C@@H]3C[C@](C)(C(=O)OCC(=O)Nc4ccc5ncccc5c4)CC[C@]3(C)CC[C@]12C` the figure was 0.24 µM. In the case of `C=c1c(O)c(O)cc2c1=CC=C1[C@@]2(C)CC[C@@]2(C)[C@@H]3C[C@](C)(C(=O)O)CC[C@]3(C)CC[C@]12C`, the IC50 was 0.25 µM. Under `CC1=C(O)C(=O)C=C2C1=CC=C1[C@@]2(C)CC[C@@]2(C)[C@@H]3C[C@](C)(C(=O)OCCOc4ccc5ccc(=O)oc5c4)CC[C@]3(C)CC[C@]12C` stands 0.08 µM; under `CC1=C(O)C(=O)C=C2C1=CC=C1[C@@]2(C)CC[C@@]2(C)[C@@H]3C[C@](C)(C(=O)OCCOc4cnc5ccccc5c4)CC[C@]3(C)CC[C@]12C`, 0.05 µM; under `COc1ccc(-n2cc(CNC(=O)COC(=O)[C@]3(C)CC[C@]4(C)CC[C@]5(C)C6=CC=C7C(=CC(=O)C(O)=C7C)[C@]6(C)CC[C@@]5(C)[C@@H]4C3)nn2)cc1`, above 30 µM. Take `CC1=C(O)C(=O)C=C2C1=CC=C1[C@@]2(C)CC[C@@]2(C)[C@@H]3C[C@](C)(C(=O)OCC(=O)NCc4cn(-c5ccccc5)nn4)CC[C@]3(C)CC[C@]12C`: the IC50 is 0.6 µM.

Take `CCOP(=O)(OCC)C(NC(=O)COC(=O)[C@]1(C)CC[C@]2(C)CC[C@]3(C)C4=CC=C5C(=CC(=O)C(O)=C5C)[C@]4(C)CC[C@@]3(C)[C@@H]2C1)c1ccc(F)cc1` (stereo not given in full): the IC50 was above 30 µM. Regarding `CC1=C(O)C(=O)C=C2C1=CC=C1[C@@]2(C)CC[C@@]2(C)[C@@H]3C[C@](C)(C(=O)OCCOc4cccc5ncccc45)CC[C@]3(C)CC[C@]12C`, the IC50 is above 30 µM. With `CC1=C(O)C(=O)C=C2C1=CC=C1[C@@]2(C)CC[C@@]2(C)[C@@H]3C[C@](C)(C(=O)OCC(=O)NCc4cn(-c5ccc(Cl)c(Cl)c5)nn4)CC[C@]3(C)CC[C@]12C` the figure was 0.12 µM; with `CC1=C(O)C(=O)C=C2C1=CC=C1[C@@]2(C)CC[C@@]2(C)[C@@H]3C[C@](C)(C(=O)OCC(=O)Nc4cccc5ncccc45)CC[C@]3(C)CC[C@]12C`, 0.36 µM. With `CC1=C(O)C(=O)C=C2C1=CC=C1[C@@]2(C)CC[C@@]2(C)[C@@H]3C[C@](C)(C(=O)OCCOc4ccc5cccnc5c4)CC[C@]3(C)CC[C@]12C` the figure was 0.17 µM; with `CC1=C(O)C(=O)C=C2C1=CC=C1[C@@]2(C)CC[C@@]2(C)[C@@H]3C[C@](C)(C(=O)OCC(=O)NCc4cn(-c5ccc(C)cc5)nn4)CC[C@]3(C)CC[C@]12C`, above 30 µM. Under `CCOP(=O)(OCC)C(NC(=O)COC(=O)[C@]1(C)CC[C@]2(C)CC[C@]3(C)C4=CC=C5C(=CC(=O)C(O)=C5C)[C@]4(C)CC[C@@]3(C)[C@@H]2C1)c1ccc(C)cc1` (stereo not given in full) stands above 30 µM.

On to `CCOP(=O)(OCC)C(NC(=O)COC(=O)[C@]1(C)CC[C@]2(C)CC[C@]3(C)C4=CC=C5C(=CC(=O)C(O)=C5C)[C@]4(C)CC[C@@]3(C)[C@@H]2C1)c1ccccc1` (stereo not given in full), for which the half-maximal inhibitory concentration (IC50) worked out at 0.24 µM.

Consider `CCOP(=O)(OCC)C(NC(=O)COC(=O)[C@]1(C)CC[C@]2(C)CC[C@]3(C)C4=CC=C5C(=CC(=O)C(O)=C5C)[C@]4(C)CC[C@@]3(C)[C@@H]2C1)c1ccc(OC)cc1` (stereo not given in full), for which the half-maximal inhibitory concentration (IC50) was determined as 0.16 µM. With `CC1=C(O)C(=O)C=C2C1=CC=C1[C@@]2(C)CC[C@@]2(C)[C@@H]3C[C@](C)(C(=O)OCC(=O)Nc4ccc(F)nc4)CC[C@]3(C)CC[C@]12C` the figure was 0.16 µM; with `CC1=C(O)C(=O)C=C2C1=CC=C1[C@@]2(C)CC[C@@]2(C)[C@@H]3C[C@](C)(C(=O)OCC(=O)Nc4cnc5ccccc5c4)CC[C@]3(C)CC[C@]12C`, 0.09 µM. As to `CC1=C(O)C(=O)C=C2C1=CC=C1[C@@]2(C)CC[C@@]2(C)[C@@H]3C[C@](C)(C(=O)OCC(=O)Nc4cccc5cccnc45)CC[C@]3(C)CC[C@]12C`, the IC50 amounted to 0.35 µM.
